Entries after “also recorded” stand apart in the source; their conditions may differ. Read-outs that look alike come from different tables or passages of the source.
What was measured:
[1] = Catalase activity, disappearance of hydrogen peroxide; details: initial hydrogen peroxide 100 μM; ± SD of triplicates
Octanol partitioning = type: physicochemical; details: octanol/aqueous; ± SD of triplicates
[2] = Peroxidase activity with tetramethyl benzidine as substrate; details: 5 μM sample, 0.2 mM hydrogen peroxide, 0.225 mM TMB, 27 °C; ± SD of triplicates
[3] = SOD activity, xanthine/xanthine oxidase with NBT detection; type: biochemical; details: read-out: SOD IC50, 10 μM NBT, pH 7.8, 25 °C
PC12 cells [4] = assay: Cytotoxicity in PC12 cells; type: cell-based, rat; details: data not shown
PC12 cells [5] = assay: Inhibition of STS-induced cell death in PC12 cells; type: cell-based, rat; details: STS 5 μM, 18–24 h, XTT viability
[6] = In vitro stability in simulated gastric fluid; type: in vitro ADME; details: intact compound after 90 min at 37 °C, pH approximately 1.2, HPLC
[7] = In vivo oral availability, plasma levels after intragastric gavage; parameters: species or system Sprague–Dawley rats; details: rat, mean ± SD; for Plasma concentration 30 min: dose per compound 0.23-2.7 mg kg^−1
serum albumin = serum albumin (Homo sapiens, UniProt P02768); assay: In vitro binding to serum albumin; details: data not shown
Chain of serum albumin (P02768 25-609 limits assumed): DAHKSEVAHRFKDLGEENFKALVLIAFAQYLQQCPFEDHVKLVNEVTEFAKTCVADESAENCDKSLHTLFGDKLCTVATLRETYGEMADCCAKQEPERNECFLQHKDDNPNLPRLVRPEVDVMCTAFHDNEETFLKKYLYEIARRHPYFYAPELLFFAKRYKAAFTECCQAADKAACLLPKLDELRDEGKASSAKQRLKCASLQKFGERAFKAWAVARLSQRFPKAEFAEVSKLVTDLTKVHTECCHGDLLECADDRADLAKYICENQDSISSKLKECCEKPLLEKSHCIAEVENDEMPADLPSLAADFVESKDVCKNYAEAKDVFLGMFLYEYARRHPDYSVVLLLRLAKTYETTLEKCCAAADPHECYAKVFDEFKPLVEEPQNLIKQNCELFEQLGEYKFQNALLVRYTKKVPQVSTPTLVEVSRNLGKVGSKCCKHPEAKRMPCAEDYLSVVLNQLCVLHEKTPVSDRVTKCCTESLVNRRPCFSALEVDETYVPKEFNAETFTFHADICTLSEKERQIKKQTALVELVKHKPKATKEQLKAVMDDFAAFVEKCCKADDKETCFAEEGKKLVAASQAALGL

[8] = tested on: capillary endothelial cells; details: cited from earlier work
[9] = tested on: capillary endothelial cells; details: endothelial cell culture model; cited from earlier work
[10] = cited from earlier work
[11] = cited from earlier work; remark: listed apart in the source
[12] = tested on: capillary endothelial cells; assay: Mitigation of ionizing radiation-induced apoptosis in endothelial cell culture; type: cell-based; details: endothelial cell culture model; unpublished data
[13] = tested on: capillary endothelial cells; assay: Cytotoxicity in endothelial cell culture model; type: cell-based; details: unpublished data
[14] = EUK-425 plasma levels after PO versus IV administration; type: in vivo, Sprague–Dawley rats; details: rats, 5 mg kg^−1 PO, 1 mg kg^−1 IV

Molecule | CAT [1] [μM H2O2 min^−1] | Log10 P (Octanol partitioning) | P (octanol partitioning coefficient) (Octanol partitioning) | POD [2] [μM TMB min^−1] | IC50 [3] [µM] | Cytotoxicity in PC12 cells (PC12 cells [4]) | Protection of PC12 cells against STS-induced cell death (PC12 cells [5]) | SGF stability [6] [%] | Plasma concentration 30 min [7] [ng/mL] | Plasma concentration 60 min [7] [ng/mL] | Plasma concentration 120 min [7] [ng/mL] | Plasma concentration 240 min [7] [ng/mL] | Plasma concentration 360 min [7] [ng/mL] | Binding to serum albumin (serum albumin) | also measured
manganese(III) 5,15-dipropylporphine chloride [EUK-453] | 0.50 ± 0.11 | 0.619 ± 0.017 | 4.16 ± 0.16 | 0.56 ± 0.03 | 5.95 | cytotoxic; also recorded: most cytotoxic | not significantly protective; also recorded: no cytoprotective activity | 98 | 8.8 ± 5.9 | 8.1 ± 5.5 | 7.7 ± 6.1 | 7.7 ± 6.0 | 4.6 ± 4.2 | – | –
manganese(III) 5,15-dicyclohexylporphine chloride [EUK-452] | 0.54 ± 0.06 | 1.973 ± 0.008 | 94.0 ± 1.7 | 0.63 ± 0.05 | 11.6 | cytotoxic; also recorded: most cytotoxic | not significantly protective; also recorded: no cytoprotective activity | 98 | 57 ± 50 | 52 ± 42 | 75 ± 63 | 75 ± 76 | 71 ± 63 | – | –
manganese(III) 5,15-di-3,4-dimethoxyphenylporphine acetate [EUK-450] | 0.58 ± 0.08 | 0.650 ± 0.010 | 4.46 ± 0.11 | 0.66 ± 0.10 | 6.39 | cytotoxic; also recorded: most cytotoxic | not significantly protective; also recorded: no cytoprotective activity | 98 | 11 ± 10 | 15 ± 9 | 48 ± 46 | 53 ± 53 | 47 ± 38 | – | –
C1=Cc2nc1cc1ccc([n-]1)c(-c1ccccc1)c1nc(cc3ccc([n-]3)c2-c2ccccc2)C=C1.CC(=O)[O-].[Mn+3] [EUK-423, manganese(III) 5,15-diphenylporphine acetate] | 0.45 ± 0.18 | 0.907 ± 0.002 | 8.07 ± 0.10 | 0.61 ± 0.05 | – | – | protect PC12 cells against STS-induced cell death; also recorded: most protective | 91 | 25 ± 7 | 53 ± 19 | 48 ± 23 | 110 ± 61 | 118 ± 17 | bind to serum albumin | Cytotoxicity in endothelial cell culture model [8]: intermediate toxicity; Mitigation of apoptosis induced by ionizing radiation [9]: mitigated apoptosis induced by ionizing radiation
COC(=O)c1c2nc(c(C(F)(F)F)c3ccc([n-]3)c(C(=O)OC)c3nc(c(C(F)(F)F)c4ccc1[n-]4)C=C3)C=C2.[Cl-].[Mn+3] [AEOL11207, 5,15-bis(methoxycarbonyl)-10,20-bistrifluoromethylporphyrinato manganese(III) chloride, reference compound] | – | – | – | – | – | – | – | – | – | – | – | – | – | – | SOD activity, fold less active than Cu/Zn SOD ([10]; normalized to Cu/Zn SOD, assay methods differed): 123 fold; Presence in brain tissue ([11]; mice, after subcutaneous or oral administration): present in the brain tissue
O=C(O)c1ccc(-c2c3nc(c(-c4ccc(C(=O)O)cc4)c4ccc([n-]4)c(-c4ccc(C(=O)O)cc4)c4nc(c(-c5ccc(C(=O)O)cc5)c5ccc2[n-]5)C=C4)C=C3)cc1.[Mn+3] [MnTBAP, manganese(III) tetrakis(4-benzoic acid) porphyrin] | – | – | – | – | – | – | – | – | – | – | – | – | – | – | SOD activity ([10]; earlier reported activity due to Mn aggregate impurities): no SOD activity
manganese(III) 5,15-ditetrahydropyranyoporphine chloride [EUK-451] | 0.64 ± 0.25 | −0.660 ± 0.011 | 0.22 ± 0.01 | 0.59 ± 0.023 | 3.36 | – | protect PC12 cells against STS-induced cell death; also recorded: most protective | 100 | 44 ± 38 | 61 ± 54 | 66 ± 62 | 107 ± 102 | 86 ± 70 | – | Mitigation of apoptosis induced by ionizing radiation [12]: potent mitigator; Cytotoxicity in endothelial cell culture model [13]: significantly lower cytotoxicity than the other EUK-400 compounds
manganese(III) 5,10,15,20-tetraethylporphine acetate [EUK-425] | 0.57 ± 0.15 | 0.932 ± 0.006 | 8.56 ± 0.35 | 0.58 ± 0.03 | 12.5 | cytotoxic; also recorded: most cytotoxic | not significantly protective; also recorded: no cytoprotective activity | 97 | 52 ± 19 | 48 ± 21 | 78 ± 47 | 96 ± 20 | – | bind to serum albumin | Detection in plasma by LC-MS/MS after oral gavage and intravenous injection [14]: detected in plasma
C1=Cc2nc1cc1ccc([n-]1)c(C1CC1)c1nc(cc3ccc([n-]3)c2C2CC2)C=C1.CC(=O)[O-].[Mn+3] [EUK-418, manganese(III) 5,15-dicyclopropylporphine acetate] | 0.47 ± 0.10 | 0.548 ± 0.009 | 3.53 ± 0.14 | 0.63 ± 0.08 | 1.73 | – | protect PC12 cells against STS-induced cell death; also recorded: relatively poor protector | 92 | 128 ± 83 | 250 ± 147 | 245 ± 145 | 299 ± 224 | 259 ± 166 | bind to serum albumin | Oral bioavailability in mice [11]: orally bioavailable in mice; Tissue distribution after oral administration ([11]; mice, selected tissues): kidney > liver > lung ≫ brain; Cytotoxicity in endothelial cell culture model [8]: greatest cytotoxicity; Mitigation of apoptosis induced by ionizing radiation [9]: mitigated apoptosis induced by ionizing radiation
